Experimental data taken from US20230172907A1, “SARS-COV-2 INHIBITORS” (priority 2021, published 2023).

System: SARS-CoV-2
Experiment: In vitro SARS-CoV-2 plaque inhibition assay in Vero E6 cells
Type: cell-based

For `COC(=O)N[C@H](C(=O)N[C@@H](Cc1ccccc1)[C@@H](O)CN(Cc1ccc(-c2ccccn2)cc1)NC(=O)[C@@H](NC(=O)OC)C(C)(C)C)C(C)(C)C` [Atazanavir], the “antiviral effects (plaque inhibition)” value (10 µM, 48 h) was “no antiviral effects”.

`CC[C@H](NC(=O)[C@H](C)NC)C(=O)N1C[C@@H](O)C[C@H]1Cc1c(-c2[nH]c3cc(F)ccc3c2C[C@@H]2C[C@H](O)CN2C(=O)[C@H](CC)NC(=O)[C@H](C)NC)[nH]c2cc(F)ccc12` [Birinapant] was tested, and the “reduction of the production of SARS-CoV-2 plaques” value (10 µM, 48 h) was 37% and the IC50 (Severe acute respiratory syndrome coronavirus 2, Vero C1008, estimated, read-out: IC50 plaque formation) was 18 ± 3.6 µM.
